Source: patent publication US20250074908A1, “SALT OF ROCK INHIBITOR, CRYSTAL FORM OF SALT, COMPOSITION, AND PHARMACEUTICAL USE” (WUHAN CREATERNA SCIENCE AND TECHNOLOGY CO., LTD., priority 2022, published 2025)
Converted amounts (≈) assume the structure as drawn.

What was measured:
[1] = Chemical stability on storage up to 3 months (HPLC purity), Table 13-4; type: physicochemical; conditions: for stability in chemical properties: 40° C./75% humidity (sealed and protected from light); for Purity (%), 230 nm, Day 13: 40° C./75% humidity, sealed and protected from light
Procedure: B) The HPLC method used for the stability study was as follows:
The vials were sealed with tin foil and then separately placed under the conditions of 40° C. temperature/75% humidity or 25° C. temperature/60% humidity for about 3 months. The samples after being placed for 0 months, 2 weeks, 1 month and 3 months were taken and each dissolved in a diluent to prepare a solution at about 1.0 mg/mL, which was then tested for chemical stability by HPLC analysis using Shimadzu LC-20ADxr.

[2] = Hygroscopicity test (dynamic vapor sorption, DVS); type: physicochemical; conditions: for weight gain (DVS): 25° C.; for hygroscopicity: DVS
Procedure: The instrument used for dynamic vapor sorption analysis was Vsorp (ProUmid GmbH & Co. KG, Germany). Each sample was subjected to vapor sorption/desorption tests using the Vsorp vapor sorption analyzer (ProUmid GmbH & Co. KG, Germany). The sample was placed in a tared sample tray, and the change in the sample mass with humidity (0-90% RH) at 25° C. was recorded.

[3] = Solid-state stability test (HPLC purity and XRPD), Table 13-3; type: physicochemical
Procedure: B) The HPLC method used for the stability test was as follows:
The samples after being placed for 0 days, 1 week, 2 weeks and 30 days were taken and each dissolved in a diluent to prepare a solution at about 1.0 mg/mL, which was then tested for chemical stability by HPLC analysis using Agilent HPLC 1260 series. The solid samples after being placed for 2 weeks and 30 days were tested for physical stability by XRPD analysis.

[4] = Solubility in biological media and purified water at 37° C. (tartrate, ethanesulfonate, 2-hydroxyethanesulfonate, sulfate); type: physicochemical
Procedure: (§1) A) The HPLC method used for the solubility test was as follows:
The centrifuge tubes were shaken on a constant temperature incubator shaker (at a temperature of 37° C., with a shaking frequency of 100 times/min).

[5] = Solubility in biologically relevant media at 37° C. (free base crystal form I, crystal form III of maleate); type: physicochemical; conditions: for pH 24 h: filtrate
Procedure: as §1
15 mg of each sample was weighed and dispersed in 3.0 mL of biologically relevant medium. The dispersion was shaken on a shaker at a rotation speed of 800 rpm at 37° C. 1 mL of the dispersion was taken at 0.5 h, 2 h, and 24 h, and filtered. The filtrate was tested for solubility by Agilent HPLC 1260 series and for pH value by a pH meter. The filter cake was characterized for the crystal form by XRPD.

[6] = Pharmacokinetic study in rats; type: in vivo, SD rats
Procedure: Compound I, 2-hydroxyethanesulfonate of compound I, ethanesulfonate (crystal form I) of compound I, tartrate of compound I, and sulfate of compound I were each accurately weighed, and the required volume of vehicle was added. The mixture was stirred for 5 min, then sonicated below 25° C. until no large particles were visible to the naked eye, and further stirred for 30 min until a homogeneous suspension was obtained. The suspension was then used for administration.
Male SPF-grade SD rats (Beijing Vital River Laboratory Animal Technology Co., Ltd.) were given compound I, the 2-hydroxyethanesulfonate of compound I, the ethanesulfonate of compound I (crystal form I), the tartrate of compound I, and the sulfate of compound I by single intragastric administration after an acclimation period (with free access to water and food). Blood was collected from the orbital venous plexus of the rats at 0.167 h, 0.5 h, 1 h, 2 h, 3 h, 4 h, 6 h, 9 h, 12 h, and 24 h after administration. Each blood sample was centrifuged at 3500×g for 10 min at 4° C. The supernatant was then collected, and the concentration of compound I in the plasma was measured by LC-MS/MS (AB Sciex TRIPLE QUAD 3500). The data were analyzed using a non-compartmental model in WinNonlin (version 5.2.1 Pharsight, Mountain View, CA) to obtain PK parameters.

[7] = filter cake after 24 h in FaSSIF
[8] = filter cake after 24 h in FeSSIF
[9] = 60° C./sealed, 60° C./sealed/N2, 40° C./75% RH (open), RT/sealed for 2 weeks
[10] = simulated gastric fluid, thermodynamic from solid, SGF, 37° C.
[11] = male SD rats, single intragastric administration, 10 mg/kg (calculated as compound I), 10 mL/kg, suspension in 0.5% CMC-Na aqueous solution, plasma concentration of compound I

Structure (SMILES)	stability in chemical properties [1]	Purity (%), 230 nm, Day 13 [1]	Purity (%), 230 nm, Day 0 [1]	XRPD spectra before and after the DVS test [2]	weight gain (DVS) ([2]; 0.0% RH to 80% RH)	hygroscopicity [2]	Purity (%), 230 nm, 40° C./75% RH (open) Week 2 ([3]; 40° C./75% RH (open))	Purity (%), 230 nm, 60° C./sealed Week 2 ([3]; 60° C./sealed)	Purity (%), 230 nm, Day 0 [3]	XRPD (24 h) [5, 7]	XRPD (24 h) [5, 8]	XRPD (24 h) ([5]; filter cake after 24 h in SGF)	pH 24 h ([5]; FaSSIF)	pH 24 h ([5]; FeSSIF)	pH 24 h ([5]; SGF)	weight gain (DVS) ([2]; 0.0% RH to 90% RH)	Purity (%), 230 nm, 40° C./75% RH (open) Week 1 ([3]; 40° C./75% RH (open))	stability in physical and chemical properties [3, 9]	Purity (%), 230 nm, 60° C./sealed Week 1 ([3]; 60° C./sealed)	Purity (%), 230 nm, 60° C./sealed/N2 Week 1 [3]	other results
Cn1c(C(=O)N2CC(F)(F)C2)cc2c1CN(c1ncc(F)c(Nc3ccc(-c4cn[nH]c4)cc3)n1)CC2.O=S(=O)(O)CCO	substantially stable	98.7%	98.76%																		
CCS(=O)(=O)O.Cn1c(C(=O)N2CC(F)(F)C2)cc2c1CN(c1ncc(F)c(Nc3ccc(-c4cn[nH]c4)cc3)n1)CC2 [Crystal form I of ethanesulfonate]	substantially stable	98.69%	98.68%	crystal form remained unchanged	about 0.3%	slightly hygroscopic	99.49%	99.50%	99.48%												stability in physical and chemical properties ([3]; 40° C./75% RH (open) and 60° C./sealed): substantially stable; Purity (%), 230 nm, 40° C./75% RH (open) Day 30 ([3]; 40° C./75% RH (open), Day 30): 99.48%; Purity (%), 230 nm, 60° C./sealed Day 30 ([3]; 60° C./sealed, Day 30): 99.49%; solubility in SGF in the first 4 h [4]: around 100 μg/mL
Cn1c(C(=O)N2CC(F)(F)C2)cc2c1CN(c1ncc(F)c(Nc3ccc(-c4cn[nH]c4)cc3)n1)CC2.O=C(O)/C=C\C(=O)O [Crystal form III of maleate]				crystal form remained unchanged	0.29%	slightly hygroscopic	97.92%	97.85%	98.11%	underwent a crystal form transformation	underwent a crystal form transformation	underwent a crystal form transformation	5.33	4.90	1.29	0.37%	98.00%	slight degradation	97.96%	97.95%	Solubility 0.5 h ([5]; FaSSIF, 37° C.): 0.14 µg/mL; Solubility 24 h ([5]; FaSSIF, 37° C.): 1.11 µg/mL; Solubility 0.5 h ([5]; FeSSIF, 37° C.): 0.74 µg/mL; Solubility 2 h ([5]; FeSSIF, 37° C.): 2.47 µg/mL; Solubility 24 h ([5]; FeSSIF, 37° C.): 3.90 µg/mL; Solubility 2 h ([5]; SGF, 37° C.): 2.18 µg/mL; Solubility 24 h ([5]; SGF, 37° C.): 6.45 µg/mL; Purity (%), 230 nm, 60° C./sealed/N2 Week 2 [3]: 97.97%; Purity (%), 230 nm, RT/sealed Week 2 [3]: 98.02%
Cn1c(C(=O)N2CC(F)(F)C2)cc2c1CN(c1ncc(F)c(Nc3ccc(-c4cn[nH]c4)cc3)n1)CC2 [Free base crystal form I]				crystal form remained unchanged	0.30%	slightly hygroscopic	97.88%	97.85%	97.90%	remained unchanged	remained unchanged	underwent a crystal form transformation	6.53	5.02	1.30	0.46%	97.82%	substantially stable	97.82%	97.83%	solubility ([5]; fassgf or other biorelevant, thermodynamic from solid, SGF, FaSSIF and FeSSIF, 37° C., read-out: solubility in the three biologically relevant media): < 50 µg/mL; solubility at 24 h ([5]; pH 1.3, simulated gastric fluid, thermodynamic from solid, SGF, 37° C.): 8.57 µg/mL (≈ 16.9 µM); solubility at 24 h ([5]; pH 5.02, thermodynamic from solid, FeSSIF, 37° C.): 3.35 µg/mL (≈ 6.59 µM); solubility at 24 h ([5]; pH 6.53, thermodynamic from solid, FaSSIF, 37° C.): 0.39 µg/mL (≈ 0.767 µM); solubility at 0.5 h [5, 10]: 11.5 µg/mL (≈ 22.6 µM); solubility at 2 h [5, 10]: 6.69 µg/mL (≈ 13.2 µM); solubility at 0.5 h ([5]; thermodynamic from solid, FaSSIF, 37° C.): 0.29 µg/mL (≈ 0.57 µM); solubility at 2 h ([5]; thermodynamic from solid, FeSSIF, 37° C.): 1.79 µg/mL (≈ 3.52 µM); Purity (%), 230 nm, 60° C./sealed/N2 Week 2 [3]: 97.84%; Purity (%), 230 nm, RT/sealed Week 2 [3]: 97.93%
O=S(=O)(O)CCO [Sample 2-Hydroxyethanesulfonate, 2-Hydroxyethanesulfonate]																					AUClast [6, 11]: 9449 ng·h/mL; Cmax [6, 11]: 827 ng/mL
O=S(=O)(O)O [Sulfate]																					AUClast ([6]; rat, in vivo, po, 10 mg/kg): 13429 ng·h/mL
